Experimental data as given in US5091425A, “5-(heterocyclylalkanoyl)amino-4-hydroxypentanamides” (Imperial Chemical Industries plc, priority 1988, dated 1992).
pIC50: −log10 of the molar value.

Target: T1, partially purified human renin (Homo sapiens, UniProt P00797)
T1 sequence (P00797 67-406): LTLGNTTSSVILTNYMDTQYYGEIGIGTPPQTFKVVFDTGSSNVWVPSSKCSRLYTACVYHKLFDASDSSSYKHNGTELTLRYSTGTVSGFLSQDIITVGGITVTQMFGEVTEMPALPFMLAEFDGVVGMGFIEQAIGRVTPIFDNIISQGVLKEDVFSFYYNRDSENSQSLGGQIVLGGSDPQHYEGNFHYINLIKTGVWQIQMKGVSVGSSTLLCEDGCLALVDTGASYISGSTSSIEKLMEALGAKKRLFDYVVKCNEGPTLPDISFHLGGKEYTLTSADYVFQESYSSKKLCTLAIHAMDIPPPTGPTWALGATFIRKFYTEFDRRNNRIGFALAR
Assay: in vitro inhibition of renin-catalysed angiotensin I generation (radioimmunoassay)
Assay type: biochemical
Details: human renin with angiotensinogen; angiotensin I by radioimmunoassay; read-out: IC50 (concentration for 50% inhibition of the renin catalysed reaction)
Description: The inhibition of the catalytic activity of renin, and in particular of human renin, may be assessed in vitro using a routine laboratory procedure involving the incubation of a test compound initially at a concentration of 100 micromolar in a buffered mixture containing appropriate concentrations of partially purified human renin and the natural renin substrate angiotensinogen. The formation of the angiotensin known as angiotensin I (which is assayed by a standard radioimmunoassay using procedures well known in the art) is inhibited by those compounds which inhibit the action of renin and the degree of inhibition is readily determined by comparing the angiotensin I generation rate in the presence of the test compound (at the specified test concentration) with the control rate of angiotensin I generation in the absence of the test compound.
In this standard test procedure, compounds which show at least 30% inhibition are retested at lower concentrations to determine their inhibitory potency. For determination of the IC50 (concentration for 50% inhibition of the renin catalysed reaction), concentrations are ordinarily chosen to allow testing over at least four orders of magnitude centred about the predicted approximate IC50, which latter is subsequently determined from a plot of percentage inhibition against concentration of the test compound. […]

- pIC50: 9.70
SMILES: CCCCNC(=O)[C@@H](C[C@H](O)[C@H](CC1CCCCC1)NC(=O)C(Cc1cccnc1)c1nnc2c(CCC)nc(-c3cccnc3)cn12)C(C)C (mixture of isomers) [Example 6, (2S,4S,5S)-N-butyl-6-cyclohexyl-4-hydroxy-2-isopropyl-5-[(2RS)-2-(8-propyl-6-(3-pyridyl)-1,2,4-triazolo[4,3-a]pyrazin-3-yl)-3-(3-pyridyl)propionamido]hexanamide]
